Legend:
Kv1.3 potassium channel = Kv1.3 potassium channel (Homo sapiens (Human), UniProt P22001); assay: Kv1.3 potassium channel blocker activity, automated whole-cell patch clamp in CHO-K1 cells stably expressing Kv1.3; type: cell-based; settings: Patchliner patch clamp
Description: Example 21. Evaluation of Kv1.3 Potassium Channel Blocker Activities
This assay is used to evaluate the disclosed compounds' activities as Kv1.3 potassium channel blockers.
CHO-K1 cells stably expressing Kv1.3 were grown in DMEM containing 10% heat-inactivated FBS, 1 mM sodium pyruvate, 2 mM L-glutamine, and G418 (500 μg/ml). Cells were grown in culture flasks at 37° C. in a 5% C02-humidified incubator.
(§1) The cells were bathed in an extracellular solution containing 140 mM NaCl, 4 mM KCl, 2 mM CaCl2), 1 mM MgCl2, 5 mM glucose, 10 mM HEPES; pH adjusted to 7.4 with NaOH; 295-305 mOsm. The internal solution contained 50 mM KCl, 10 mM NaCl, 60 mM KF, 20 mM EGTA, 10 mM HEPES; pH adjusted to 7.2 with KOH; 285 mOsm. All compounds were dissolved in DMSO at 30 mM. Compound stock solutions were freshly diluted with external solution to concentrations of 30 nM, 100 nM, 300 nM, 1 μM, 3 μM, 10 μM, 30 μM and 100 μM. The highest content of DMSO (0.3%) was present in 100 μM.
The currents were evoked by applying 100 ms depolarizing pulses from −90 mV (holding potential) to +40 mV were applied with 0.1 Hz frequency. Control (compound-free) and compound pulse trains for each compound concentration applied contained 20 pulses. 10-second breaks were used between pulse trains (see Table A below).
Whole-cell current recordings and compound application were enabled by means of an automated patch clamp platform Patchliner (Nanion Technologies GmbH). EPC 10 patch clamp amplifier (HEKA Elektronik Dr. Schulze GmbH) along with Patchmaster software (HEKA Elektronik Dr. Schulze GmbH) was used for data acquisition. Data were sampled at 10 kHz without filtering. Passive leak currents were subtracted online using a P/4 procedure (HEKA Elektronik Dr. Schulze GmbH). Increasing compound concentrations were applied consecutively to the same cell without washouts in between. Total compound incubation time before the next pulse train was not longer than 10 seconds. Peak current inhibition was observed during compound equilibration.
(§2) AUC and peak values were obtained with Patchmaster (HEKA Elektronik Dr. Schulze GmbH). To determine IC50, the last single pulse in the pulse train corresponding to a given compound concentration was used. Obtained AUC and peak values in the presence of compound were normalized to control values in the absence of compound. Using Origin (OridinLab), IC50 was derived from data fit to Hill equation: Icompound/Icontrol=(100-A)/(1+([compound]/IC50)nH)+A, where IC50 value is the concentration at which current inhibition is half-maximal, [compound] is the applied compound concentration, A is the fraction of current that is not blocked and nH is the Hill coefficient.

hERG channel = hERG channel (Homo sapiens (Human), UniProt Q12809); assay: hERG electrophysiology, automated whole-cell patch clamp in CHO-K1 cells stably expressing hERG; type: cell-based; settings: Patchliner patch clamp
Description: Example 22. Evaluation of hERG Activities
This assay is used to evaluate the disclosed compounds's inhibition activities against the hERG channel.
This assay is used to evaluate the disclosed compounds' inhibition activities against the hERG channel.
CHO-K1 cells stably expressing hERG were grown in Ham's F-12 Medium with glutamine containing 10% heat-inactivated FBS, 1% penicillin/streptomycin, hygromycin (100 μg/ml) and G418 (100 μg/ml). Cells were grown in culture flasks at 37° C. in a 5% CO2— humidified incubator.
as §1, with “Glucose,” for “glucose,”
The voltage protocol (see Table B) was designed to simulate voltage changes during a cardiac action potential with a 300 ms depolarization to +20 mV (analogous to the plateau phase of the cardiac action potential), a repolarization for 300 ms to −50 mV (inducing a tail current) and a final step to the holding potential of −80 mV. The pulse frequency was 0.3 Hz. Control (compound-free) and compound pulse trains for each compound concentration applied contained 70 pulses.
Whole-cell current recordings and compound application were enabled by means of an automated patch clamp platform Patchliner (Nanion). EPC 10 patch clamp amplifier (HEKA) along with Patchmaster software (HEKA Elektronik Dr. Schulze GmbH) was used for data acquisition. Data were sampled at 10 kHz without filtering. Increasing compound concentrations were applied consecutively to the same cell without washouts in between.
as §2, with “PEAK” for “peak”, “IC50” for “IC50,”, “Icompound/Icontrol=(100−A)/(1+([compound]/IC50)nH)+A,” for “Icompound/Icontrol=(100-A)/(1+([compound]/IC50)nH)+A,”, “IC50” for “IC50 value”

Chain of Kv1.3 potassium channel (P22001 whole entry): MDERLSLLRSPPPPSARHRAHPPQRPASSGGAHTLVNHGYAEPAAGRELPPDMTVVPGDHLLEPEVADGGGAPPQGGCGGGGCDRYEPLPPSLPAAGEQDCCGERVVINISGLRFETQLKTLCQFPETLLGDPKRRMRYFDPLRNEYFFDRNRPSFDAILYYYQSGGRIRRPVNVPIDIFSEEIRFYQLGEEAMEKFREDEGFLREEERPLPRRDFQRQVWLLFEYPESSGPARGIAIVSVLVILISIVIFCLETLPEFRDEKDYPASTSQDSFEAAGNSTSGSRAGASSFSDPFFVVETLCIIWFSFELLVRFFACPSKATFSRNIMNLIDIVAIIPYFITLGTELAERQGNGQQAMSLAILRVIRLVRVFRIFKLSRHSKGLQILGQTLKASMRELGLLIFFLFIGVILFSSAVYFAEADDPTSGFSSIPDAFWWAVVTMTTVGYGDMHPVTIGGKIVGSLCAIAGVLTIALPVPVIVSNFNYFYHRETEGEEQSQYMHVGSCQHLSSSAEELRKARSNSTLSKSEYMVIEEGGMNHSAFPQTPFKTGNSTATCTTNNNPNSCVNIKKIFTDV
Chain of hERG channel (Q12809 whole entry): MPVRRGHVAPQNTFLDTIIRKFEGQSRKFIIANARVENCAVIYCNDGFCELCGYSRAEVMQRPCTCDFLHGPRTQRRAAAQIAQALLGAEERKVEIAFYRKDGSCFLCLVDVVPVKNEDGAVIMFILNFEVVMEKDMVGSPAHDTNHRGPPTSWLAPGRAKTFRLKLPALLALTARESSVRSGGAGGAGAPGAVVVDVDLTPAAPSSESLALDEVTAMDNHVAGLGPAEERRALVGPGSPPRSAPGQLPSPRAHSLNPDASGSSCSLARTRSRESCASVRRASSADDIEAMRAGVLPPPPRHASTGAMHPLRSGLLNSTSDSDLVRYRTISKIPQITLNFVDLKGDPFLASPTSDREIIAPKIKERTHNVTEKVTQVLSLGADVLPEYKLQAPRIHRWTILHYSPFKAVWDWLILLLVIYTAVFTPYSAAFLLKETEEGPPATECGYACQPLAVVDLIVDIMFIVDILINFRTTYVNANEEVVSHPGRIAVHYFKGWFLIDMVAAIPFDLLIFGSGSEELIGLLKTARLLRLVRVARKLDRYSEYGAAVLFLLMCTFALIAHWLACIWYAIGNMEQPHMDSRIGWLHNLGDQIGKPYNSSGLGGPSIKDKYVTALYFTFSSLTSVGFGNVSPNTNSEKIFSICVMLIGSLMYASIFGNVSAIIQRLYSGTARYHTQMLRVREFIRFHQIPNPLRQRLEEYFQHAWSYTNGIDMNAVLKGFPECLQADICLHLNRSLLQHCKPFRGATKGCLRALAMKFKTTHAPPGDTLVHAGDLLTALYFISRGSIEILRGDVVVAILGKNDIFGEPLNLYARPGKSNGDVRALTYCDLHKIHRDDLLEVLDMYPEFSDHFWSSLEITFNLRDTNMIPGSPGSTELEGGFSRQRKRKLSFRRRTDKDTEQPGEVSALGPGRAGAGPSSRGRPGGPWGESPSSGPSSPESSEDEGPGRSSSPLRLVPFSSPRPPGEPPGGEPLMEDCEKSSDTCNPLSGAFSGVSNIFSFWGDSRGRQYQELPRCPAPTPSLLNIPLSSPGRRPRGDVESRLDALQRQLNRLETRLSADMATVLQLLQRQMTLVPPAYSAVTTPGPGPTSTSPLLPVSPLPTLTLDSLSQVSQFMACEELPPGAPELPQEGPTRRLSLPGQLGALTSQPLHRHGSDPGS

Row | IC50 (Kv1.3 potassium channel) [µM] | Structure (SMILES) | IC50 (hERG channel) [µM]
1 | < 1 | CN(C)C(=O)C[C@H]1CN[C@@H](c2c(O)ccc(Cl)c2Cl)C1 [Compound 41, 2-((3S,5R)-5-(2,3-dichloro-6-hydroxyphenyl)pyrrolidin-3-yl)-N,N-dimethyalcetamide] | > 30
2 | < 0.1 | CNC(=O)C[C@H]1CN[C@@H](c2c(O)ccc(Cl)c2Cl)C1 [Compound 42, 2-((3S,5R)-5-(2,3-dichloro-6-hydroxyphenyl)pyrrolidin-3-yl)-N-methylacetamide] | > 30
3 | < 1 | O=C(CO)NC[C@@H]1CN[C@@H](c2c(O)ccc(Cl)c2Cl)C1 [Compound 48, N-{[(3S,5R)-5-(2,3-dichloro-6-hydroxyphenyl)pyrrolidin-3-yl]methyl}-2-hydroxyacetamide] | > 30
4 | < 1 | O=C(CO)NC[C@H]1CN[C@@H](c2c(O)ccc(Cl)c2Cl)C1 [Compound 49, N-(((3R,5R)-5-(2,3-dichloro-6-hydroxyphenyl)pyrrolidin-3-yl)methyl)-2-hydroxyacetamide] | > 100
5 | < 1 | CC(C)(C(N)=O)[C@H]1CN[C@@H](c2c(O)ccc(Cl)c2Cl)C1 [Compound 52, 2-[(3S,5R)-5-(2,3-dichloro-6-hydroxyphenyl)pyrrolidin-3-yl]-2-methylpropanamide] | > 30
6 | < 1 | NC(=O)C[C@@H]1CC[C@H](c2c(O)ccc(Cl)c2Cl)N1 [Compound 53, 2-((2S,5R)-5-(2,3-dichloro-6-hydroxyphenyl)pyrrolidin-2-yl)acetamide] | > 100
7 | < 0.1 | O=C(C[C@H]1CN[C@@H](c2c(O)ccc(Cl)c2Cl)C1)N1CC(O)C1 [Compound 56, 2-((3S,5R)-5-(2,3-dichloro-6-hydroxyphenyl)pyrrolidin-3-yl)-1-(3-hydroxyazetidin-1-yl)ethan-1-one] | > 100
8 | < 0.1 | C[C@H](CO)NC(=O)C[C@H]1CN[C@@H](c2c(O)ccc(Cl)c2Cl)C1 [Compound 63, 2-((3S,5R)-5-(2,3-dichloro-6-hydroxyphenyl)pyrrolidin-3-yl)-N-((R)-1-hydroxypropan-2-yl)acetamide] | > 100
9 | < 0.1 | C[C@@H](O)CNC(=O)C[C@H]1CN[C@@H](c2c(O)ccc(Cl)c2Cl)C1 [Compound 64, 2-((3S,5R)-5-(2,3-dichloro-6-hydroxyphenyl)pyrrolidiin-3-yl)-N-((R)-2-hydroxypropyl)acetamide] | > 100
10 | < 0.1 | C[C@H](O)CNC(=O)C[C@H]1CN[C@@H](c2c(O)ccc(Cl)c2Cl)C1 [Compound 65, 2-((3S,5R)-5-(2,3-dichloro-6-hydroxyphenyl)pyrrolidin-3-yl)-N-((S)-2-hydroxypropyl)acetamide] | > 100
11 | < 1 | O=C(C[C@H]1CN[C@@H](c2c(O)ccc(Cl)c2Cl)C1)N1CC[C@H]1CO [Compound 68, 2-((3S,5R)-5-(2,3-dichloro-6-hydroxyphenyl)pyrrolidin-3-yl)-1-((S)-2-(hydroxymethyl)azetidin-1-yl)ethan-1-one] | > 100

More lines, now with the values behind:

Row | Structure (SMILES) | IC50 (Kv1.3 potassium channel) [µM] | IC50 (hERG channel) [µM]
12 | O=C(CC1CN[C@@H](c2c(O)ccc(Cl)c2Cl)C1)N1CC[C@@H](O)C1 (stereo partly drawn) [Compound 39, 2-((5R)-5-(2,3-dichloro-6-hydroxyphenyl)pyrrolidin-3-yl)-1-((R)-3-hydroxypyrrolidin-1-yl)ethan-1-one] | < 0.1 | > 100
13 | O=C(CC1CN[C@@H](c2c(O)ccc(Cl)c2Cl)C1)N1CC[C@H](O)C1 (stereo partly drawn) [Compound 40, 2-((5R)-5-(2,3-dichloro-6-hydroxyphenyl)pyrrolidin-3-yl)-1-((S)-3-hydroxypyrrolidin-1-yl)ethan-1-one] | < 1 | > 100
14 | O=C(C[C@H]1CN[C@@H](c2c(O)ccc(Cl)c2Cl)C1)N1CC(O)(CO)C1 [Compound 43, 2-((3S,5R)-5-(2,3-dichloro-6-hydroxyphenyl)pyrrolidin-3-yl)-1-(3-hydroxy-3-(hydroxymethyl)azetidin-1-yl)ethan-1-one] | < 0.1 | > 100
15 | Oc1ccc(Cl)c(Cl)c1[C@H]1C[C@@H](Cc2cn[nH]c2)CN1 [Compound 54, 3,4-dichloro-2-[(2R,4R)-4-(1H-pyrazol-4-ylmethyl)pyrrolidin-2-yl] phenol] | < 0.1 | > 10
16 | Oc1ccc(Cl)c(Cl)c1[C@H]1C[C@@H](Cc2cc[nH]n2)CN1 [Compound 55, 2-((2R,4S)-4-((1H-pyrazol-3-yl)methyl)pyrrolidin-2-yl)-3,4-dichlorophenol] | < 1 | > 10
17 | O=C(C[C@H]1CN[C@@H](c2c(O)ccc(Cl)c2Cl)C1)N1CCC[C@@H](O)C1 [Compound 58, 2-((3S,5R)-5-(2,3-dichloro-6-hydroxyphenyl)pyrrolidin-3-yl)-1-((R)-3-hydroxypipeiridn-1-yl)ethan-1-one] | < 1 | > 30
18 | CC1(O)CN(C(=O)C[C@H]2CN[C@@H](c3c(O)ccc(Cl)c3Cl)C2)C1 [Compound 61, 2-((3S,5R)-5-(2,3-dichloro-6-hydroxyphenyl)pyrrolidin-3-yl)-1-(3-hydroxy-3-methylazetidin-1-yl)ethan-1-one] | < 0.1 | > 100
19 | CC(C)(O)CNC(=O)C[C@H]1CN[C@@H](c2c(O)ccc(Cl)c2Cl)C1 [Compound 66, 2-((3S,5R)-5-(2,3-dichloro-6-hydroxyphenyl)pyrrolidin-3-yl)-N-(2-hydroxy-2-methylpropyl)acetamide] | < 1 | > 100
20 | O=C(C[C@H]1CN[C@@H](c2c(O)ccc(Cl)c2Cl)C1)N1CC[C@@H]1CO [Compound 67, 2-((3S,5R)-5-(2,3-dichloro-6-hydroxyphenyl)pyrrolidin-3-yl)-1-((R)-2-(hydroxymethyl)azetidin-1-yl)ethan-1-one] | < 1 | > 100
21 | CC(C)(CO)NC(=O)C[C@H]1CN[C@@H](c2c(O)ccc(Cl)c2Cl)C1 [Compound 71, 2-((3S,5R)-5-(2,3-dichloro-6-hydroxyphenyl)pyrrolidin-3-yl)-N-(1-hydroxy-2-methylpropan-2-yl)acetamide] | < 1 | > 100
